In patent publication US12649751B2 (Arcus Biosciences, Inc., priority 2022, dated 2026):

target: HPK1 (Homo sapiens, UniProt Q92918); test: HPK1 Biochemical Assay (ADP-Glo luminescence; low ATP 10 μM or high ATP 200 μM); conditions: 2 nM HPK1, 10 μM ATP; read-out: Biochemical Potency (low ATP)
Sequence (Q92918 whole entry, species assumed): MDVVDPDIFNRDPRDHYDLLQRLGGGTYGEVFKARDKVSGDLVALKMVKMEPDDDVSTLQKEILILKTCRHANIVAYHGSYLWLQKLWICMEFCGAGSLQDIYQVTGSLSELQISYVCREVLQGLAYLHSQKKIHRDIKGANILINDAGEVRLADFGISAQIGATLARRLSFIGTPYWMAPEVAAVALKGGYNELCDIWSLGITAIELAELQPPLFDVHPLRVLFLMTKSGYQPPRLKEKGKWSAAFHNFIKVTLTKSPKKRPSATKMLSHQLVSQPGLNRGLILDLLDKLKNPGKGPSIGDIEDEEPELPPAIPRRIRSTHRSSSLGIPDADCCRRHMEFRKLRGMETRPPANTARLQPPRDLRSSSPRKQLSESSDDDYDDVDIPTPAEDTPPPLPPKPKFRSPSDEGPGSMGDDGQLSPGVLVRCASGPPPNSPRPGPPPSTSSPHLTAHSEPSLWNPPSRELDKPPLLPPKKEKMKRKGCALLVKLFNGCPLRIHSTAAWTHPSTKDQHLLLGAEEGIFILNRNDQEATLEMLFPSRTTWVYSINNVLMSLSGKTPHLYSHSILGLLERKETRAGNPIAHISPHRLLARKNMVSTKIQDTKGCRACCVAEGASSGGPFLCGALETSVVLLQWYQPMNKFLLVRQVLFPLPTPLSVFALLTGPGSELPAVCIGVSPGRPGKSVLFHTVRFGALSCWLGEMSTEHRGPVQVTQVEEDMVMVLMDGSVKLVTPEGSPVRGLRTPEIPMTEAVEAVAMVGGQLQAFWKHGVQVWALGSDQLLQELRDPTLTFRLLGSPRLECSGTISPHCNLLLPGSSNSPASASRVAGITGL

SMILES	IC50 [µM]
Cc1ccc(Nc2cc3nc(-c4ncccc4C)sc3cn2)nc1CCN1CCCC1 [Example 62, 5-Methyl-N-[2-(3-methylpyridin-2-yl)-[1,3]thiazolo[5,4-c]pyridin-6-yl]-6-[2-(pyrrolidin-1-yl)ethyl]pyridin-2-amine]	0.1 to 1
Cc1cccnc1-c1nc2cc(Nc3cccc(N4C5CC4CN(C)C5)n3)ncc2s1 [Example 99, 6-{3-Methyl-3,6-diazabicyclo[3.1.1]heptan-6-yl}-N-[2-(3-methylpyridin-2-yl)-[1,3]thiazolo[5,4-c]pyridin-6-yl]pyridin-2-amine]	1 to 5
Cc1ccc(Nc2cc3nc(-n4nccc4C)sc3cn2)nc1N1CC[C@H](O)C1 [Example 202, (3S)-1-(3-Methyl-6-{[2-(5-methyl-1H-pyrazol-1-yl)-[1,3]thiazolo[5,4-c]pyridin-6-yl]amino}pyridin-2-yl)pyrrolidin-3-ol]	0.1 to 1
Cc1ccc(Nc2cc3nc(-c4cncnc4)sc3cn2)nc1CN1CCCC1 [Example 58, 5-Methyl-N-[2-(pyrimidin-5-yl)-[1,3]thiazolo[5,4-c]pyridin-6-yl]-6-[(pyrrolidin-1-yl)methyl]pyridin-2-amine]	0.1 to 1
CN(C)C(=O)c1cccc(-c2nc3cc(Nc4nccc(N5C[C@@H]6C[C@H]5CN6C)n4)ncc3s2)c1 [Example 243, N,N-Dimethyl-3-[6-({4-[(1S,4S)-5-methyl-2,5-diazabicyclo[2.2.1]heptan-2-yl]pyrimidin-2-yl}amino)-[1,3]thiazolo[5,4-c]pyridin-2-yl]benzamide]	0.1 to 1

Results, then the molecule that gave them:

IC50 [µM]	SMILES
< 0.1	CN1C[C@@H]2C[C@H]1CN2c1nccc(Nc2cc3nc(-c4ncco4)sc3cn2)n1 [Example 157, 2-[(1S,4S)-5-Methyl-2,5-diazabicyclo[2.2.1]heptan-2-yl]-N-[2-(1,3-oxazol-2-yl)-[1,3]thiazolo[5,4-c]pyridin-6-yl]pyrimidin-4-amine]
0.1 to 1	Cc1ccc(Nc2cc3nc(-n4nccc4C)sc3cn2)nc1N1CCN(CCO)CC1 [Example 203, 2-[4-(3-Methyl-6-{[2-(5-methyl-1H-pyrazol-1-yl)-[1,3]thiazolo[5,4-c]pyridin-6-yl]amino}pyridin-2-yl)piperazin-1-yl]ethan-1-ol]
0.1 to 1	Cc1cccnc1-c1nc2cc(Nc3nccc(N4C[C@@H](N)C[C@H]4CO)n3)ncc2s1 [Example 242, [(2S,4S)-4-amino-1-(2-{[2-(3-Methylpyridin-2-yl)-[1,3]thiazolo[5,4-c]pyridin-6-yl]amino}pyrimidin-4-yl)pyrrolidin-2-yl]methanol]
0.1 to 1	Cc1ccc(Nc2cc3nc(-c4cnn(C(F)(F)F)c4)sc3cn2)nc1CN1CCCC1 [Example 36, 5-Methyl-6-[(pyrrolidin-1-yl)methyl]-N-{2-[1-(trifluoromethyl)-1H-pyrazol-4-yl]-[1,3]thiazolo[5,4-c]pyridin-6-yl}pyridin-2-amine]
< 0.1	C[C@H]1CCC(=O)N1c1nc2cc(Nc3ccc(C4CCOCC4)c(CN4CCCC4)n3)ncc2s1 [Example 208, (5S)-5-Methyl-1-(6-{[5-(oxan-4-yl)-6-[(pyrrolidin-1-yl)methyl]pyridin-2-yl]amino}-[1,3]thiazolo[5,4-c]pyridin-2-yl)pyrrolidin-2-one]
< 0.1	Cc1cccnc1-c1nc2cc(Nc3ccc(N4CCOCC4)c(CN4CCCCC4)n3)ncc2s1 [Example 64, N-[2-(3-Methylpyridin-2-yl)-[1,3]thiazolo[5,4-c]pyridin-6-yl]-5-(morpholin-4-yl)-6-[(piperidin-1-yl)methyl]pyridin-2-amine]
0.1 to 1	Cc1ccc(Nc2cc3nc(-c4ncccn4)sc3cn2)nc1CN1CCCC1 [Example 55, 5-Methyl-N-[2-(pyrimidin-2-yl)-[1,3]thiazolo[5,4-c]pyridin-6-yl]-6-[(pyrrolidin-1-yl)methyl]pyridin-2-amine]
< 0.1	Cc1cccnc1-c1nc2cc(Nc3ccc(C4CCOCC4)c(N4C[C@@H]5C[C@H]4CN5)n3)ncc2s1 [Example 246, 6-[(1S,4S)-2,5-Diazabicyclo[2.2.1]heptan-2-yl]-N-[2-(3-methylpyridin-2-yl)-[1,3]thiazolo[5,4-c]pyridin-6-yl]-5-(oxan-4-yl)pyridin-2-amine]
< 0.1	Cc1ccc(Nc2cc3nc(-c4ncccc4C)sc3cn2)nc1CN1CCC[C@@H]1C [Example 45, 5-Methyl-N-[2-(3-methylpyridin-2-yl)-[1,3]thiazolo[5,4-c]pyridin-6-yl]-6-{[(2S)-2-methylpyrrolidin-1-yl]methyl}pyridin-2-amine]
< 0.1	Cc1cc(Nc2cc3nc(-c4ccnc(C)c4)sc3cn2)nc(O[C@H]2CCNC2)c1 [Example 168, 4-Methyl-N-[2-(2-methylpyridin-4-yl)-[1,3]thiazolo[5,4-c]pyridin-6-yl]-6-[(3S)-pyrrolidin-3-yloxy]pyridin-2-amine]
< 0.1	Cc1cccnc1-c1nc2cc(Nc3cncc(N4C[C@@H](N)C[C@H]4CO)n3)ncc2s1 [Example 150, [(2S,4S)-4-Amino-1-(6-{[2-(3-methylpyridin-2-yl)-[1,3]thiazolo[5,4-c]pyridin-6-yl]amino}pyrazin-2-yl)pyrrolidin-2-yl]methanol]
< 0.1	CN1C[C@@H]2C[C@H]1CN2c1nccc(Nc2cc3nc(-c4ccnc(N5CC[C@H](F)C5)c4)sc3cn2)n1 [Example 265, N-(2-{2-[(3S)-3-Fluoropyrrolidin-1-yl]pyridin-4-yl}-[1,3]thiazolo[5,4-c]pyridin-6-yl)-2-[(1S,4S)-5-methyl-2,5-diazabicyclo[2.2.1]heptan-2-yl]pyrimidin-4-amine]
< 0.1	Cc1cccnc1-c1nc2cc(Nc3ccc(C)c(N4C[C@H](O)C[C@H]4CO)n3)ncc2s1 [Example 77, (3R,5S)-5-(Hydroxymethyl)-1-(3-methyl-6-{[2-(3-methylpyridin-2-yl)-[1,3]thiazolo[5,4-c]pyridin-6-yl]amino}pyridin-2-yl)pyrrolidin-3-ol]
< 0.1	C[C@H]1CCCCN1c1nc2cc(Nc3ccc(C4CCOCC4)c(CN4CCCC4)n3)ncc2s1 [Example 236, N-{2-[(2S)-2-Methylpiperidin-1-yl]-[1,3]thiazolo[5,4-c]pyridin-6-yl}-5-(oxan-4-yl)-6-[(pyrrolidin-1-yl)methyl]pyridin-2-amine]
< 0.1	Cc1cc(Nc2cc3nc(N4CCC[C@@H](O)C4)sc3cn2)nc(O[C@H]2CCNC2)c1 [Example 193, (3R)-1-(6-{[4-Methyl-6-((3S)-pyrrolidin-3-yloxy)pyridin-2-yl]amino}-[1,3]thiazolo[5,4-c]pyridin-2-yl)piperidin-3-ol]
< 0.1	Cc1cc(Nc2cc3nc(-c4nccn4C)sc3cn2)nc(O[C@H]2CCNC2)c1 [Example 183, 4-Methyl-N-[2-(1-methyl-1H-imidazol-2-yl)-[1,3]thiazolo[5,4-c]pyridin-6-yl]-6-[(3S)-pyrrolidin-3-yloxy]pyridin-2-amine]
< 0.1	CNS(=O)(=O)c1cccc(-c2nc3cc(Nc4cccc(N5C[C@@H]6C[C@H]5CN6)n4)ncc3s2)c1 [Example 292, 3-[6-({6-[(1S,4S)-2,5-diazabicyclo[2.2.1]heptan-2-yl]pyridin-2-yl}amino)-[1,3]thiazolo[5,4-c]pyridin-2-yl]-N-methylbenzene-1-sulfonamide]
< 0.1	Cc1ccn(-c2nc3cc(Nc4ccc(N5CCOCC5)c(CN5CCCC5)n4)ncc3s2)n1 [Example 195, N-[2-(3-Methyl-1H-pyrazol-1-yl)-[1,3]thiazolo[5,4-c]pyridin-6-yl]-5-(morpholin-4-yl)-6-[(pyrrolidin-1-yl)methyl]pyridin-2-amine]
< 0.1	CN1C[C@@H]2C[C@H]1CN2c1cncc(Nc2cc3nc(-c4ncco4)sc3cn2)n1 [Example 156, 6-[(1S,4S)-5-Methyl-2,5-diazabicyclo[2.2.1]heptan-2-yl]-N-[2-(1,3-oxazol-2-yl)-[1,3]thiazolo[5,4-c]pyridin-6-yl]pyrazin-2-amine]
< 0.1	Cc1cccnc1-c1nc2cc(Nc3ccc(C4CCOCC4)c(CN[C@@H]4CCOC4)n3)ncc2s1 [Example 215, N-[2-(3-Methylpyridin-2-yl)-[1,3]thiazolo[5,4-c]pyridin-6-yl]-5-(oxan-4-yl)-6-({[(3R)-oxolan-3-yl]amino}methyl)pyridin-2-amine]

same assay, conditions: HPK1 ADP-Glo assay, high ATP (200 μM ATP, 5 nM HPK1); read-out: Biochemical Potency (high ATP)

IC50 [µM]	SMILES
< 0.1	CC[C@@H]1COCCN1c1cncc(-c2nc3cc(Nc4cc(C)nc(N5C[C@@H]6C[C@H]5CN6CC)n4)ncc3s2)c1 [Example 473]
< 0.1	Cc1cc(Nc2cc3nc(-c4cccc(C(=O)N(C)C[C@@H]5CCOC5)c4)sc3cn2)nc(N2C[C@@H]3C[C@H]2CN3CCO)n1 [Example 557]

same assay, conditions: HPK1 ADP-Glo assay, low ATP (10 μM ATP, 2 nM HPK1); read-out: Biochemical Potency (low ATP)

IC50 [µM]	SMILES
0.1 to 1	CN1C[C@@H]2C[C@H]1CN2c1nccc(Nc2cc3nc(N4CCc5ccncc5C4)sc3cn2)n1 [Example 427]
< 0.1	CC(C)(O)c1cc(-c2nc3cc(Nc4cnc(C5CCOCC5)c(N5C[C@@H]6C[C@H]5CN6)n4)ncc3s2)ccn1 [Example 303, 2-{4-[6-({6-[(1S,4S)-2,5-diazabicyclo[2.2.1]heptan-2-yl]-5-(oxan-4-yl)pyrazin-2-yl}amino)-[1,3]thiazolo[5,4-c]pyridin-2-yl]pyridin-2-yl}propan-2-ol]
< 0.1	CN1C[C@@H]2C[C@H]1CN2c1nccc(Nc2cc3nc(-c4ccnc(N5CC[C@@H](O)C5)c4)sc3cn2)n1 [Example 465]
< 0.1	CN1C[C@@H]2C[C@H]1CN2c1cncc(Nc2cc3nc(-c4cccc(C(C)(C)O)c4)sc3cn2)n1 [Example 418]
< 0.1	c1cnn(-c2nc3cc(Nc4cc(C5CCOCC5)nc(N5C[C@@H]6C[C@H]5CN6)n4)ncc3s2)c1 [Example 437]
< 0.1	CN1C[C@@H]2C[C@H]1CN2c1nccc(Nc2cc3nc(-c4ccnc(N5CC[C@@H](F)C5)c4)sc3cn2)n1 [Example 461]
< 0.1	Cc1ccnn1-c1nc2cc(Nc3ccc4c(n3)C(C)(N)CCC4)ncc2s1 (stereo not shown) [Example 580]
